In patent US20230399341A1, “7-PHENYL SUBSTITUTED 2-AMINOQUINAZOLINE INHIBITORS OF HPK1” (MERCK SHARP & DOHME LLC, priority 2020, published 2023):

Biological target: T1, Human HPK1, catalytic domain (Homo sapiens, UniProt Q92918)
T1 sequence (Q92918 1-346): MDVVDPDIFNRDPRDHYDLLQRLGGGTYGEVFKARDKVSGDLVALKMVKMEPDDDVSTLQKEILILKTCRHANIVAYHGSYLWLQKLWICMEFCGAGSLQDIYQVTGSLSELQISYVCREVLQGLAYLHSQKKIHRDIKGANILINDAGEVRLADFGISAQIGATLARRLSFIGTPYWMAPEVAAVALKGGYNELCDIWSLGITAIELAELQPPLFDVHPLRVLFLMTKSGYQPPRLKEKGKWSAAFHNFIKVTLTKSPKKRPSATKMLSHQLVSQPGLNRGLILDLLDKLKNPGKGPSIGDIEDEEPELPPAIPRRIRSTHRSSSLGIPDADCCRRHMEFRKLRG
Assay: HPK1-SLP76 TR-FRET Assay
Assay type: biochemical
Conditions: 75 pM HPK1, ATP 10 uM, SLP76 10 nM, 30 min pre-incubation, 60 min reaction

| IC50 | Structure (SMILES) |
| --- | --- |
| 0.051 nM | Cc1c(-c2cc3nc(Nc4ccc5c(c4)CN(C(C)C)CC5)ncc3c(N)c2F)cnc2c1NCC(C)O2 (single isomer, unassigned) [Compound 2-145, 7-(3,8-dimethyl-2,3-dihydro-1H-pyrido[2,3-b][1,4]oxazin-7-yl)-6-fluoro-N2-(2-isopropyl-1,2,3,4-tetrahydroisoquinolin-7-yl)quinazoline-2,5-diamine] |
| 0.0425 nM | CCS(=O)(=O)Cc1ccc(Nc2ncc3cc(F)c(-c4cnc5c(c4C)NCCO5)cc3n2)cc1 [Compound 1-134, N-{4-[(ethylsulfonyl)methyl]phe-nyl}-6-fluoro-7-(8-methyl-2,3-dihydro-1H-pyrido[2,3-b][1,4]oxazin-7-yl)quinazolin-2-amine] |
| 212 nM | COc1cc2c(cc1Nc1ncc3ccc(-c4cnc(C#N)c(C)c4)cc3n1)CN(C)CC2 [Compound 1-104, 5-{2-[(6-methoxy-2-methyl-1,2,3,4-tetrahydroisoquinolin-7-yl)amino]quinazolin-7-yl}-3-methylpyridine-2-carbonitrile] |
| 14.3 nM | COc1nc(C2(C#N)CC2)ccc1Nc1ncc2c(N)c(F)c(-c3cnc4c(c3C)NCCO4)cc2n1 [Compound 2-68, 1-(5-{[5-amino-6-fluoro-7-(8-methyl-2,3-dihydro-1H-pyrido[2,3-b][1,4]oxazin-7-yl)quinazolin-2-yl]amino}-6-methoxypyridin-2-yl)cyclopropane-1-carbonitrile] |
| 824 nM | COc1cc2c(cc1Nc1ncc3ccc(NC4(C(=O)N(C)C)CCC4)cc3n1)CN(C)CC2 [Compound 3-61, 1-({2-[(6-methoxy-2-methyl-1,2,3,4-tetrahydroisoquinolin-7-yl)amino]quinazolin-7-yl}-amino)-N,N-dimethylcyclo-butane-1-carboxamide] |
| 156 nM | COc1cc2c(cc1Nc1ncc3ccc(-c4cccc(C(C)(C)N)c4)cc3n1)CNCC2 [Compound 1-89, 7-[3-(2-aminopropan-2-yl)phenyl]-N-(6-methoxy-1,2,3,4-tetrahydroisoquinolin-7-yl)quinazolin-2-amine] |
| 24.6 nM | CCC1COC(=O)N1c1ccc2cnc(Nc3cc4c(cc3OC)CCN(C)C4)nc2c1 (single isomer, unassigned) [Compound 3-14, (S or R)-4-ethyl-3-{2-[(6-methoxy-2-methyl-1,2,3,4-tetrahydroisoquinolin-7-yl)amino]quinazolin-7-yl}-1,3-oxazolidin-2-one] |
| 4.61 nM | CCn1cc(-c2ccc3cnc(Nc4cc5c(cc4OC)CCN(C)C5)nc3c2)cn1 [Compound 1-20, 7-(1-ethyl-1H-pyrazol-4-yl)-N-(6-methoxy-2-methyl-1,2,3,4-tetrahydroisoquinolin-7-yl)quinazolin-2-amine] |
| 2.19 nM | COc1cc2c(cc1Nc1ncc3c(N)cc(Oc4ccc5c(c4)CCNC5)cc3n1)CN(C)CC2 [Compound 4-9, N2-(6-Methoxy-2-methyl-1,2,3,4-tetrahydroisoquinolin-7-yl)-7-((1,2,3,4-tetrahydroisoquinolin-6-yl)oxy)quinazoline-2,5-diamine] |
| 693 nM | CCNC(=O)c1ccc(-c2ccc3cnc(Nc4cc5c(cc4OC)CCN(C)C5)nc3c2)cn1 [Compound 1-23, N-ethyl-5-{2-[(6-methoxy-2-methyl-1,2,3,4-tetrahydroisoquinolin-7-yl)amino]quinazolin-7-yl}pyridine-2-carboxamide] |
| 0.0731 nM | CC(=O)Nc1ccc(Nc2ncc3c(N)c(F)c(-c4cnc5c(c4C)NCCO5)cc3n2)cc1 [Compound 2-15] |
| 161 nM | COc1cc2c(cc1Nc1ncc3ccc(-c4ccc5c(c4)C(=O)N(CC4CC4)C5)cc3n1)CNCC2 [Compound 1-68, 2-(cyclopropylmethyl)-6-{2-[(6-methoxy-1,2,3,4-tetrahydroisoquinolin-7-yl)amino]quinazolin-7-yl}-2,3-dihydro-1H-isoindol-1-one] |
| 24.3 nM | C[C@@H]1COC(=O)N1c1cc(N)c2cnc(Nc3ccc(S(C)(=O)=O)cc3)nc2c1 [Compound 3-77, (R)-3-(5-amino-2-((4-(methyl-sulfonyl)phenyl)amino)quinaz-olin-7-yl)-4-methyloxazolidin-2-one] |
| 328 nM | COc1cc2c(cc1Nc1ncc3ccc(-c4ccc(C#N)nc4)cc3n1)CN(C)CC2 [Compound 1-103, 5-{2-[(6-methoxy-2-methyl-1,2,3,4-tetrahydroisoquinolin-7-yl)amino]quinazolin-7-yl}pyridine-2-carbonitrile] |
| 0.254 nM | COc1ccccc1Nc1ncc2c(N)c(F)c(-c3cnc4c(c3C)NCCO4)cc2n1 [Compound 2-71, 6-fluoro-N~2~-(2-methoxyphenyl)-7-(8-methyl-2,3-dihydro-1H-pyrido[2,3-b][1,4]oxazin-7-yl)quinazoline-2,5-diamine] |
| 0.0706 nM | Cc1c(-c2c(F)c(N)c3cnc(Nc4ccc5c(c4)CN(C)CC54CC4)nc3c2C)cnc2c1NCCO2 [Compound 2-110, (+ or −)-6-fluoro-8-methyl-N2-(2′-methyl-2′,3′-dihydro-1′H-spiro[cyclopropane-1,4′-isoquinolin]-7′-yl)-7-(8-methyl-2,3-dihydro-1H-pyrido[2,3-b][1,4]oxazin-7-yl)quinazoline-2,5-diamine] |
| 180 nM | COc1cc2c(cc1Nc1ncc3ccc(N[C@H]4CCC[C@@H]4O)cc3n1)CN(C)CC2 [Compound 3-58, (1S,2S)-2-({2-[(6-methoxy-2-methyl-1,2,3,4-tetrahydroiso-quinolin-7-yl)amino]quinazolin-7-yl}amino)cyclopentan-1-ol] |
| 7.7 nM | COc1cc2c(cc1Nc1ncc3ccc(-c4cnn(CCO)c4)cc3n1)CN(C)CC2 [Compound 1-13, 2-(4-{2-[(6-methoxy-2-methyl-1,2,3,4-tetrahydroisoquinazolin-7-yl)amino]quinazolin-7-yl}-1H-pyrazol-1-yl)ethan-1-ol] |
| 0.0851 nM | Cc1c(-c2cc3nc(Nc4ccc(S(C)(=O)=O)cc4)ncc3c(N)c2F)cnc2c1NCCO2 [Compound 2-17, 6-fluoro-7-(8-methyl-2,3-dihydro-1H-pyrido[2,3-b][1,4]oxazin-7-yl)-N~2~- [4-(methylsulfonyl)phenyl] quinazoline-2,5-diamine] |
| 45.7 nM | COc1cc2c(cc1Nc1ncc3ccc(-c4cc(C#N)ccc4OC)cc3n1)CNCC2 [Compound 1-63, 4-methoxy-3-{2-[(6-methoxy-1,2,3,4-tetrahydroisoquinolin-7-yl)amino]quinazolin-7-yl}benzonitrile] |
| 5.77 nM | COc1cc2c(cc1Nc1ncc3c(N)c(F)c(-c4cnc5c(c4C)NCCO5)c(Cl)c3n1)CN(C)CC2 [Compound 2-94, (+ or −)-8-chloro-6-fluoro-N~2~-(6-methoxy-2-methyl-1,2,3,4-tetrahydroisoquinolin-7-yl)-7-(8-methyl-2,3-dihydro-1H-pyrido[2,3-b][1,4]oxazin-7-yl)quinazoline-2,5-diamine] |
| 0.105 nM | CCS(=O)(=O)Cc1ccc(Nc2ncc3c(N)c(F)c(-c4cnc5c(c4C)NCC(C)O5)cc3n2)c(F)c1 (single isomer, unassigned) [Compound 2-125, (R or S)-7-(3,8-dimethyl-2,3-dihydro-1H-pyrido[2,3-b][1,4]oxazin-7-yl)-N2-(4-((ethylsulfonyl)methyl)-2-fluorophenyl)-6-fluoroquinazoline-2,5-diamine] |
